Measured values: ChEMBL document CHEMBL1123662, “Preparation, receptor binding, and fluorescence properties of hexestrol-fluorophore conjugates: evaluation of site of attachment, fluorophore structure, and fluorophore-ligand spacing” (J Med Chem, 1987)

Assay: Estrogen receptor binding affinity using [3H]estradiol in a competitive radioreceptor binding assay.

relative binding affinity (RBA)	SMILES
7.4	CCC(c1ccc(O)cc1)C(CC)c1ccc(O)c(CCCN2C(=O)c3cccc(N)c3C2=O)c1 (stereo unspecified)
13.2	CCC(c1ccc(O)cc1)C(CC)c1ccc(O)c(CCCOC)c1 (stereo unspecified)
16.2	CCC(c1ccc(O)cc1)C(CCO)c1ccc(O)cc1 (stereo unspecified)
12	CCC(c1ccc(O)cc1)C(CC)c1ccc(O)c(CCCO)c1 (stereo unspecified)
5	CCC(c1ccc(O)cc1)C(CC)c1ccc(O)c(CCCOCc2ccccc2)c1 (stereo unspecified)
69	CCC(c1ccc(O)cc1)C(CC)c1ccc(O)c(N=[N+]=[N-])c1 (stereo unspecified)
172	CCC(c1ccc(O)cc1)C(CI)c1ccc(O)cc1 (stereo unspecified)
37	CCC(c1ccc(O)cc1)C(CC)c1ccc(O)c(I)c1 (stereo unspecified)
60	CCC(c1ccc(O)cc1)C(CCI)c1ccc(O)cc1 (stereo unspecified)
3.6	CCCCSCCCc1cc(C(CC)C(CC)c2ccc(O)cc2)ccc1O (stereo unspecified)
8.9	CCC(c1ccc(O)cc1)C(CO)c1ccc(O)cc1 (stereo unspecified)
54	C=CCc1cc(C(CC)C(CC)c2ccc(O)cc2)ccc1O (stereo unspecified)
1	CCC(c1ccc(O)cc1)C(CC)c1ccc(O)c(CCCNc2ccc([N+](=O)[O-])cc2[N+](=O)[O-])c1 (stereo unspecified)
5.4	CCC(c1ccc(O)cc1)C(CC)c1ccc(O)c(CCCN2C(=O)c3ccccc3C2=O)c1 (stereo unspecified)
133	CCC(c1ccc(O)cc1)C(C)c1ccc(O)cc1 (stereo unspecified)
1.7	CCC(c1ccc(O)cc1)C(CC)c1ccc(O)c(CCCOc2ccc([N+](=O)[O-])cc2[N+](=O)[O-])c1 (stereo unspecified)

Further lines, the molecule ahead of its results:

SMILES	relative binding affinity (RBA)
CCC(c1ccc(O)cc1)C(CSCCCCN1C(=O)c2ccccc2C1=O)c1ccc(O)cc1 (stereo unspecified)	3.6
CCC(c1ccc(O)cc1)C(CSCCCCCNc1ccc([N+](=O)[O-])c2nonc12)c1ccc(O)cc1 (stereo unspecified)	3.5
CCC(c1ccc(O)cc1)C(CC)c1ccc(O)c(CCCN2C(=O)c3cccc([N+](=O)[O-])c3C2=O)c1 (stereo unspecified)	3
CCCCSCCC(c1ccc(O)cc1)C(CC)c1ccc(O)cc1 (stereo unspecified)	23.4
CCC(c1ccc(O)cc1)C(CSCCCCNc1ccc([N+](=O)[O-])c2nonc12)c1ccc(O)cc1 (stereo unspecified)	3.9
CCC(c1ccc(O)cc1)C(CSCCCNc1ccc([N+](=O)[O-])c2nonc12)c1ccc(O)cc1 (stereo unspecified)	4.3
CCCCCOC(=O)CC(c1ccc(O)cc1)C(CC)c1ccc(O)cc1 (stereo unspecified)	4.2
CCC(c1ccc(O)cc1)C(C(=O)OC)c1ccc(O)cc1 (stereo unspecified)	69
CCC(c1ccc(O)cc1)C(CC(=O)OC)c1ccc(O)cc1 (stereo unspecified)	20
CCC(c1ccc(O)cc1)C(CC)c1ccc(O)c(CCCNS(=O)(=O)c2cccc3c(N(C)C)cccc23)c1 (stereo unspecified)	1.3
CCC(c1ccc(O)cc1)C(CSCCCCCCCNc1ccc([N+](=O)[O-])c2nonc12)c1ccc(O)cc1 (stereo unspecified)	3.4
CCCCCOC(=O)C(c1ccc(O)cc1)C(CC)c1ccc(O)cc1 (stereo unspecified)	39
CCC(c1ccc(O)cc1)C(CSCCNc1ccc([N+](=O)[O-])c2nonc12)c1ccc(O)cc1 (stereo unspecified)	0.85
CCCCSCC(c1ccc(O)cc1)C(CC)c1ccc(O)cc1 (stereo unspecified)	61.6
CCC(c1ccc(O)cc1)C(CSCCCCCCNc1ccc([N+](=O)[O-])c2nonc12)c1ccc(O)cc1 (stereo unspecified)	2.9
CCC(c1ccc(O)cc1)C(CC)c1ccc(O)c(CCCNc2ccc([N+](=O)[O-])c3nonc23)c1 (stereo unspecified)	1.5
CCC(c1ccc(O)cc1)C(CSCCCCCCCN1C(=O)c2ccccc2C1=O)c1ccc(O)cc1 (stereo unspecified)	1.6
CCC(c1ccc(O)cc1)C(CCOCCOCCCl)c1ccc(O)cc1 (stereo unspecified)	16.6
CCC(c1ccc(O)cc1)C(COCCOCCCl)c1ccc(O)cc1 (stereo unspecified)	6.7
CCC(c1ccc(O)cc1)C(CSCCCCCCCNS(=O)(=O)c1cccc2c(N(C)C)cccc12)c1ccc(O)cc1 (stereo unspecified)	2.6
